This note sets out measurements from ChEMBL document CHEMBL4376860, “Discovery of Novel Dual Poly(ADP-ribose)polymerase and Phosphoinositide 3-Kinase Inhibitors as a Promising Strategy for Cancer Therapy” (J Med Chem, 2020).

pIC50: −log10 of the molar value.

For assay [1], the target named is Poly [ADP-ribose] polymerase 1 (Homo sapiens, UniProt P09874). Description: Inhibition of recombinant human PARP1 using histone as substrate after 1 hr in presence of biotinylated NAD+ by ELISA. A general note: An ELISA detects its analyte on a solid surface through an enzyme-linked reagent.
Chain of Poly [ADP-ribose] polymerase 1 (P09874 whole entry, canonical isoform): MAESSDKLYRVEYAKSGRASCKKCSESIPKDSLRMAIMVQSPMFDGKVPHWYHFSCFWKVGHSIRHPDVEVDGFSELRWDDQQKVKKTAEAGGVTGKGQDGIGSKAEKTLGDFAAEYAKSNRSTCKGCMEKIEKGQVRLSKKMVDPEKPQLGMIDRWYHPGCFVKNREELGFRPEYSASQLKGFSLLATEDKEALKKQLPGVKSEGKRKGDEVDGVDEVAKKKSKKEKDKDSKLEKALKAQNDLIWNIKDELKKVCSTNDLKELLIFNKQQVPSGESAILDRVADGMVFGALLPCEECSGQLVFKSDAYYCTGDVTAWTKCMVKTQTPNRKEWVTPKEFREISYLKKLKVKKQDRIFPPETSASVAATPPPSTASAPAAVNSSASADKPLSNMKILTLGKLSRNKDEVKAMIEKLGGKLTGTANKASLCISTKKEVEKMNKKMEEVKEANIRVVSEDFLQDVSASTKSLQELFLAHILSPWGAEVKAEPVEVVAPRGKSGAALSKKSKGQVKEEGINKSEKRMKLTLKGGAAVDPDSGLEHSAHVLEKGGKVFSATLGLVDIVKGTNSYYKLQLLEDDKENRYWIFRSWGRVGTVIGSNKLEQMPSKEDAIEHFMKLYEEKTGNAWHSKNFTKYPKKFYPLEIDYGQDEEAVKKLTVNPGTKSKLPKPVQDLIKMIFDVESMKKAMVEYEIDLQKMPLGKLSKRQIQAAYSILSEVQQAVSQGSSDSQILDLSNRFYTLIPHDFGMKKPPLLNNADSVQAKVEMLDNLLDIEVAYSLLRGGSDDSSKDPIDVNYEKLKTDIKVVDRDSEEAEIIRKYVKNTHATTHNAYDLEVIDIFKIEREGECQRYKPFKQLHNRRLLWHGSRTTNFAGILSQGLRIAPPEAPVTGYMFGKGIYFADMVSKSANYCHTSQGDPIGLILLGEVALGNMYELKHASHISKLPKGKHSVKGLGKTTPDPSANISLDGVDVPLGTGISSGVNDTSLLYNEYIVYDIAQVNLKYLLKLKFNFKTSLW
For assay [2], the target named is Phosphatidylinositol 4,5-bisphosphate 3-kinase catalytic subunit alpha isoform (Homo sapiens, UniProt P42336). Put plainly: Inhibition of PI3Kalpha (unknown origin) using PIP2 as substrate measured after 1 hr by ADP-glo plus luminescence assay.
Chain of Phosphatidylinositol 4,5-bisphosphate 3-kinase catalytic subunit alpha isoform (P42336 whole entry, canonical isoform): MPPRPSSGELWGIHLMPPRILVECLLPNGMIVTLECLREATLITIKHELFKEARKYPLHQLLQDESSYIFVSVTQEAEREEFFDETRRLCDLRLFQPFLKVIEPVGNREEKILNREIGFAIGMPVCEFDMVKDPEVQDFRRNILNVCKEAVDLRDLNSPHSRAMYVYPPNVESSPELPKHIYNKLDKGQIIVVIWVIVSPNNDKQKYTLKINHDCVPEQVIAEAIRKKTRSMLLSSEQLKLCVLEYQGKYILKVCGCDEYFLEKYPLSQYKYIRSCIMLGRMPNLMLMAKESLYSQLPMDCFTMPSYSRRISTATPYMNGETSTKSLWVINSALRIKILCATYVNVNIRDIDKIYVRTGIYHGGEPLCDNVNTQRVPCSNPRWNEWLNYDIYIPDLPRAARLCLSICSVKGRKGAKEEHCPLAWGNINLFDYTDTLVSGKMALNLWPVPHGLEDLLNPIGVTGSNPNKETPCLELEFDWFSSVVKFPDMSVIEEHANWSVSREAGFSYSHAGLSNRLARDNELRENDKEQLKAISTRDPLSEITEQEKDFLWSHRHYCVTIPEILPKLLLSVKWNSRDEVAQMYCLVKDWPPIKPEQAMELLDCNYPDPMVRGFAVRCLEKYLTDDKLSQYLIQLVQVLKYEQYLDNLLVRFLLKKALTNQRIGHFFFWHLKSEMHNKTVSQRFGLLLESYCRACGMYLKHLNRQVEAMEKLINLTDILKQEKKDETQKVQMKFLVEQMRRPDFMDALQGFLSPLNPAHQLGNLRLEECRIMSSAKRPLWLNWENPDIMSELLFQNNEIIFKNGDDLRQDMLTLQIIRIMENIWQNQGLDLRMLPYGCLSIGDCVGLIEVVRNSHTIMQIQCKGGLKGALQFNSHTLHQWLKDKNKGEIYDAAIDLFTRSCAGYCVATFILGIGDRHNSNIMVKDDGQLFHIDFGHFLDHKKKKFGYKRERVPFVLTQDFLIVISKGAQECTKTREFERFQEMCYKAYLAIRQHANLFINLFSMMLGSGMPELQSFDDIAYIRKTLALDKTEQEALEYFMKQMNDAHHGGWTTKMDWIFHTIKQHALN

`O=C(c1cc(Cc2n[nH]c(=O)c3ccccc23)ccc1F)N1CCc2c(nc(-c3cccc4[nH]ccc34)nc2N2CCOCC2)C1`: the pIC50 (in general, −log10 of the IC50, conventionally taken in molar units) in assay [1] is 8.31; in assay [2], 7.36.

As for `O=C(c1cc(Cc2n[nH]c(=O)c3ccccc23)ccc1F)N1CCN(c2nc(-c3cccc4[nH]ncc34)nc(N3CCOCC3)n2)CC1`, the pIC50 was 9.36 in assay [1] and 6.46 in assay [2].

Turning to `Nc1cc(-c2nc(N3CCOCC3)nc(N3CCN(C(=O)c4cc(Cc5n[nH]c(=O)c6ccccc56)ccc4F)CC3)n2)ccc1F`, the pIC50 in assay [1] is 8.96; in assay [2], 5.64.

`Nc1cc(C(F)(F)F)c(-c2nc(N3CCOCC3)nc(N3CCN(C(=O)c4cc(Cc5n[nH]c(=O)c6ccccc56)ccc4F)CC3)n2)cn1`: the pIC50 in assay [1] was 8.02; in assay [2] it was 6.77.

With `O=C(c1cc(Cc2n[nH]c(=O)c3ccccc23)ccc1F)N1CCN(c2nc(-c3ccc4[nH]ccc4c3)nc(N3CCOCC3)n2)CC1`, the pIC50 is 9.16 in assay [1] and 6.16 in assay [2].

Regarding `O=C(c1cc(Cc2n[nH]c(=O)c3ccccc23)ccc1F)N1CCN(c2nc(-c3cccc4[nH]ccc34)nc(N3CCOCC3)n2)CC1`, the pIC50 in assay [1] is 9.19; in assay [2], 6.20.

Regarding `Nc1ncc(-c2nc(N3CCOCC3)nc(N3CCN(C(=O)c4cc(Cc5n[nH]c(=O)c6ccccc56)ccc4F)CC3)n2)cc1C(F)(F)F`, the figures for the pIC50 in assay [1] and in assay [2] were 8.95 and 5.92, respectively.

As to `O=C(c1cc(Cc2n[nH]c(=O)c3ccccc23)ccc1F)N1CCc2c(nc(-c3cccc4[nH]ncc34)nc2N2CCOCC2)C1`, the pIC50 is 8.21 in assay [1] and 7.35 in assay [2].

With `Nc1ccc(-c2nc(N3CCOCC3)nc(N3CCN(C(=O)c4cc(Cc5n[nH]c(=O)c6ccccc56)ccc4F)CC3)n2)c(F)c1`, the pIC50 in assay [1] is 9.14; in assay [2], 6.15.

As to `O=C(c1cc(Cc2n[nH]c(=O)c3ccccc23)ccc1F)N1CCN(c2nc(-c3ccc4cn[nH]c4c3)nc(N3CCOCC3)n2)CC1`, the results for the pIC50 in assay [1] and in assay [2] were 9.17 and < 5.00, respectively.

`Nc1ccc(-c2nc(N3CCOCC3)nc(N3CCN(C(=O)c4cc(Cc5n[nH]c(=O)c6ccccc56)ccc4F)CC3)n2)cc1F`: the pIC50 in assay [1] was 9.08; in assay [2] it was 6.25.

With `Nc1ccc(-c2nc(N3CCOCC3)nc(N3CCN(C(=O)c4cc(Cc5n[nH]c(=O)c6ccccc56)ccc4F)CC3)n2)cc1`, the results for the pIC50 in assay [1] and in assay [2] were 8.93 and 6.48, respectively.

As to `Nc1ccc(-c2nc(N3CCOCC3)nc(N3CCN(C(=O)c4cc(Cc5n[nH]c(=O)c6ccccc56)ccc4F)CC3)n2)cn1`, the pIC50 is 8.97 in assay [1] and 6.88 in assay [2].

For `Nc1ccc(-c2nc3c(c(N4CCOCC4)n2)CCN(C(=O)c2cc(Cc4n[nH]c(=O)c5ccccc45)ccc2F)C3)cn1`, the figures for the pIC50 in assay [1] and in assay [2] were 8.10 and 7.52, respectively.

As to `Nc1cc(C(F)(F)F)c(-c2cc(N3CCN(C(=O)c4cc(Cc5n[nH]c(=O)c6ccccc56)ccc4F)CC3)nc(N3CCOCC3)n2)cn1`, the pIC50 in assay [1] is 7.81; in assay [2], 6.49.
